Measurements reported in patent US7601847B2, “Preparation and purification of 4-(indazol-3-yl)phenols” (Wyeth, priority 2004, dated 2009).
In brackets after ≈: the same amount, converted by molar mass.

Assay: relative solubility in a mixture of methanol and water
Format: physicochemical
Settings: mixture of methanol and water (57:43 v/v); for solubility: methanol/water mixture (57:43 v/v), aqueous with cosolvent or surfactant or cyclodextrin

Row | solubility [mg/mL] | difference in solubility in favor of the impurity (VI vs compound I) [×] | Compound
1 | 6 (≈ 17.9 mM) | – | C=CCn1nc(-c2ccc(O)cc2O)c2cccc(C(F)(F)F)c21 [I, 4-[1-allyl-7-(trifluoromethyl)-1H-indazol-3-yl]benzene-1,3-diol]
2 | 140 (≈ 419 mM) | 20 | C=CCn1nc2c(C(F)(F)F)cccc2c1-c1ccc(O)cc1O [VI]
